Calls of active or inactive are those of the source. No cut-off for these calls is given here.
How the values were obtained:
Mus musculus [1] = organism: Mus musculus; assay: Binding affinity to alpha-syn PFF in chronic C57BL/6 mouse brain straitum measured for 1 hrs by immunofluorescence confocal microscopic analysis; format: tissue-based; settings: Striatum
Mus musculus [2] = organism: Mus musculus; assay: Binding affinity to alpha-syn PFF in acute C57BL/6 mouse brain striatum measured after 1 hrs by immunofluorescence confocal microscopic analysis; format: tissue-based
[3] = Permeability of compound in BBB assay; format: ADME
[4] = Brain concentration in Sprague-Dawley rat at 5 mg/kg, iv measured upto 120 mins by LC-MS/MS analysis; format: ADME, organism-based; settings: read-out: Ct
[5] = Ratio of drug concentration in Sprague-Dawley rat brain to plasma at 5 mg/kg, iv measured upto 120 mins by LC-MS/MS analysis; format: ADME, organism-based; settings: read-out: BPR
[6] = Plasma concentration in Sprague-Dawley rat at 5 mg/kg, iv measured upto 120 mins by LC-MS/MS analysis; format: ADME, organism-based
Mus musculus [7] = organism: Mus musculus; assay: Binding affinity to alpha-syn PFF in chronic C57BL/6 mouse M2 motor cortex measured for 1 hrs by immunofluorescence confocal microscopic analysis; format: tissue-based
Alpha-synuclein = Alpha-synuclein (Homo sapiens, UniProt P37840); assay: Binding affinity to recombinant human alpha-syn aggregates assessed as dissociation constant by SPR analysis

With `CN(C)c1ccc(/C=C/c2ccccc2NC(=O)c2ccccn2)cc1` the Activity (Mus musculus [1]) was “Active”, the Activity (Mus musculus [2]) was “inactive” and the pBBB [3] was over 0.3. The concentration at 2 h [4] was 15.9 µM, the Kp at 2 h [5] was 2.62 and the concentration at 2 h [6] was 6.06 µM.
With `O=C(Nc1ccccc1/C=C/c1ccc([N+](=O)[O-])cc1)c1ccccn1` the Activity (Mus musculus [1]) was “Active”, the Activity (Mus musculus [2]) was “Active” and the pBBB [3] was over 0.3. For the same compound, the concentration at 2 h [4] was 46.8 µM, the Activity (Mus musculus [7]) was “Active” and the Kp at 2 h [5] was 1.21. The concentration at 2 h [6] was 38.5 µM.
For `COc1ccc(/C=C/c2ccc(NC(=O)c3ccccc3)cc2)cc1`, the Kd (Alpha-synuclein) was over 10 µM.
Compound `COc1ccc(/C=C/c2ccccc2NC(=O)c2cccnn2)cc1` has a Kd (Alpha-synuclein) of over 10 µM.
With `O=C(Nc1ccc(/C=C/c2ccc(F)cc2)cc1)c1ccccc1` the Kd (Alpha-synuclein) was over 10 µM.
With `O=C(Nc1ccccc1/C=C/c1ccc([N+](=O)[O-])cc1)c1cccnn1` the Kd (Alpha-synuclein) was over 10 µM.
For `COc1ccc(/C=C/c2ccccc2NC(=O)c2cccnc2)cc1`, the Kd (Alpha-synuclein) was over 10 µM.
`COc1ccc(/C=C/c2ccccc2NC(=O)NCc2cnccn2)cc1` showed a Kd (Alpha-synuclein) of over 10 µM.
Compound `O=C(Nc1ccccc1/C=C/c1ccc(F)cc1)c1cccnn1` has a Kd (Alpha-synuclein) of over 10 µM.
`COc1ccc(/C=C/c2ccccc2NC(=O)c2cccs2)cc1` gave a Kd (Alpha-synuclein) of over 10 µM.
